According to patent publication US20100227863A1, “SUBSTITUTED 3-(4-HYDROXYPHENYL)-INDOLIN-2-ONE COMPOUNDS” (TOPOTARGET A/S, priority 2007, published 2010):

These compounds were tested on MCF-7 cells (assay: In vitro cell proliferation assay (WST assay)). Conditions: Homo sapiens, MCF7, 72 h, total incubation time 72 h, viable cells by WST-1 reagent.
Assay type: cell-based
Description: In vitro Cell Proliferation Assay (WST Assay)
MCF-7 cells were seeded in 96-well plates at 3×10^3 cells/well in 100 μL of culture medium, 8 wells were left empty for media only controls.
After 24 h the compound titrations were performed, in a separate dilution plate, by serially diluting the compounds of general formula (I) in culture medium. A 100 μL of each dilution was added to the plated cells, this was done in triplicate, and controls (e.g. DMSO and blanks) were included. The plates were incubated for 24 h at 37° C. in a CO2 incubator. The compound titrations were repeated in a separate dilution plate after 24 h. The media plus compound from the assay plates were then aspirated. A 100 μL of media was then added to all wells, followed by 100 μL of each compound dilution. The plates were incubated for a further 48 h at 37° C. in a CO2 incubator (total incubation time 72 h). The number of viable cells was then assessed using Cell Proliferation Reagent WST-1. 10 μL of WST-1 reagent added to each well and incubated for one to four hours at 37° C. in CO2 incubator. The absorbance was measured (450 nm/690 nm).
The activity of compounds of general formula (I) in reducing the number of viable cells was calculated as:
% activity=[(S^c−B)/(S^o−B)]×100
S^c denotes signal measured in the presence of test compound, S^o denotes signal detected in the absence of compound, and B denotes background signal, measured in blank wells containing medium only. Analyse data using GraphPad Prism.

SMILES	IC50 [nM]
O=C1Nc2c(ccc(F)c2F)C1(c1ccncc1)c1ccc(O)cc1 (stereo not drawn) [Compound 1006, 6,7-difluoro-3-(4-hydroxyphenyl)-3-(pyridin-4-yl)indolin-2-one]	34.5
O=C1Nc2c(ccc(F)c2F)C1(c1ccc(O)cc1)C1CCCCC1 (stereo not drawn) [Compound 1010, 3-cyclohexyl-6,7-difluoro-3-(4-hydroxyphenyl)indolin-2-one]	7.3
O=C1Nc2c(ccc(F)c2F)C1(c1ccc(O)cc1)C1CCCCCC1 (stereo not drawn) [Compound 1018, 3-cycloheptyl-6,7-difluoro-3-(4-hydroxyphenyl)indolin-2-one]	3.4
O=C1Nc2c(C(F)(F)F)cccc2C1(c1ccc(O)cc1)C1CCCCC1 (stereo not drawn) [Compound 1021, 3-cyclohexyl-3-(4-hydroxyphenyl)-7-(trifluoromethyl)indolin-2-one]	17.5
O=C1Nc2c(ccc(F)c2F)C1(c1ccc(O)cc1)c1ccc(F)c(F)c1 (stereo not drawn) [Compound 1022, 3-(3,4-difluorophenyl)-6,7-difluoro-3-(4-hydroxyphenyl)indolin-2-one]	5.2
Cc1ccc(C2(c3ccc(O)cc3)C(=O)Nc3c2ccc(F)c3F)cc1F (stereo not drawn) [Compound 1023, 6,7-difluoro-3-(3-fluor-4-methylphenyl)-3-(4-hydroxyphenyl)indolin-2-one]	4
Cc1ccc2c(c1C)NC(=O)C2(c1ccc(O)cc1)C1CCCCC1 (stereo not drawn) [Compound 1025, 3-cyclohexyl-3-(4-hydroxyphenyl)-6,7-dimethylindolin-2-one]	25.9
O=C1Nc2c(ccc(F)c2F)C1(c1ccc(O)cc1)c1ccc2ccccc2c1 (stereo not drawn) [Compound 1033, 6,7-difluoro-3-(4-hydroxyphenyl)-3-(naphthalene-2-yl)indolin-2-one]	10.2
Cc1ccc2c(c1F)NC(=O)C2(c1ccc(O)cc1)C1CCCCCC1 (stereo not drawn) [Compound 1034, 3-cycloheptyl-7-fluoro-3-(4-hydroxyphenyl)-6-methylindolin-2-one]	9.1
Cc1c(F)ccc2c1NC(=O)C2(c1ccc(O)cc1)C1CCCCC1 (stereo not drawn) [Compound 1039, 3-cyclohexyl-6-fluoro-3-(4-hydroxyphenyl)-7-methylindolin-2-one]	5.7

Further lines, results first:

IC50 [nM]	SMILES
19.1	Cc1ccc2c(c1C)NC(=O)C2(c1ccc(O)cc1)C1CCCCCC1 (stereo not drawn) [Compound 1043, 3-cycloheptyl-3-(4-hydroxyphenyl)-6,7-dimethylindolin-2-one]
12.6	COc1ccc2c(c1C)NC(=O)C2(c1ccc(O)cc1)C1CCCCC1 (stereo not drawn) [Compound 1046, 3-cyclohexyl-3-(4-hydroxyphenyl)-6-methoxy-7-methylindolin-2-one]
3.5	Cc1ccc2c(c1Cl)NC(=O)C2(c1ccc(O)cc1)C1CCCCCC1 (stereo not drawn) [Compound 1053, 7-chloro-3-cycloheptyl-3-(4-hydroxyphenyl)-6-methylindolin-2-one]
10.5	Cc1ccc2c(c1Br)NC(=O)C2(c1ccc(O)cc1)C1CCCCC1 (stereo not drawn) [Compound 1056, 7-bromo-3-cyclohexyl-3-(4-hydroxyphenyl)-6-methylindolin-2-one]
32.9	Cc1cccc2c1NC(=O)C2(c1ccc(O)cc1)C1CCCCC1 (stereo not drawn) [Compound 1059, 3-cyclohexyl-3-(4-hydroxyphenyl)-7-methylindolin-2-one]
6.8	O=C1Nc2c(Br)cccc2C1(c1ccc(O)cc1)C1CCCCC1 (stereo not drawn) [Compound 1062, 7-bromo-3-cyclohexyl-3-(4-hydroxyphenyl)indolin-2-one]
10	COc1cc(C)c2c(c1)C(c1ccc(O)cc1)(C1CCCCC1)C(=O)N2 (stereo not drawn) [Compound 1070]
4.7	COc1ccc2c(c1C)NC(=O)C2(c1ccc(O)cc1)C1CCCCCC1 (stereo not drawn) [Compound 1087, 3-cycloheptyl-3-(4-hydroxyphenyl)-6-methoxy-7-methylindolin-2-one]
8.4	O=C1Nc2c(ccc(F)c2F)C1(c1ccc(O)cc1)c1ccc(O)cc1 [Reference compound, 6,7-Difluoro-3,3-bis-(4-hydroxy-phenyl)-1,3-dihydro-indol-2-one, reference compound]

Same assay, conditions: total incubation time 72 h, viable cells by WST-1 reagent

IC50 [nM]	SMILES
3.9	O=C1Nc2c(ccc(F)c2F)C1(c1ccc(O)cc1)C1CCCCC1 (single isomer, unassigned) [Compound 1027, 3-cyclohexyl-6,7-difluoro-3-(4-hydroxyphenyl)indolin-2-one]
> 500	O=C1Nc2c(ccc(F)c2F)C1(c1ccc(O)cc1)C1CCCCC1 (single isomer, unassigned) [Compound 1028, 3-cyclohexyl-6,7-difluoro-3-(4-hydroxyphenyl)indolin-2-one]
